Reference: patent US5455222A, “1-substituted-5-thiomethylthiocyanato-1H-tetrazoles, compositions containing them and their use as antimicrobial and marine antifouling agents” (The Dow Chemical Company, priority 1994, dated 1995)
In brackets after ≈: the same amount, converted by molar mass.

Columns and labels:
[1] = system: Staphylococcus aureus (Sa); assay: Minimum inhibitory concentration (MIC), bacteria in nutrient agar; format: cell-based, Staphylococcus aureus ATCC 6538; settings: 48 hours
Procedure: (§1) The minimum inhibitory concentration (MIC) for the compounds listed in Table I is determined for 9 bacteria, using nutrient agar, and 7 yeast and fungi, using malt yeast agar. A one percent solution of the test compound is prepared in a mixture of acetone and water.
(§2) Nutrient agar is prepared at pH 6.8, representing a neutral medium, and at pH 8.2, representing an alkaline medium. The nutrient agars are prepared by adding 23 g of nutrient agar to one liter of deionized water. In addition, the alkaline medium is prepared by adjusting a 0.04M solution of N-[tris-(hydroxymethyl)methyl]glycine buffered deionized water with concentrated sodium hydroxide to a pH of 8.5.
(§3) The test tubes containing the agar are cooled in a water bath until the temperature of the agar is 48° C. Then, an appropriate amount of the one percent solution of the test compound is added (except in the controls where no compound is added) to the respective test tubes so that the final concentrations are 500, 250, 100, 50, 25, 10, 5, 2.5, 1.0 and zero parts per million of the test compound in the agar, thus having a known concentration of test compound dispersed therein. The contents of the test tubes are then transferred to respective petri plates. After drying for 24 hours, the petri plates containing nutrient agar are inoculated with bacteria and those containing malt yeast agar are inoculated with yeast and fungi.
(§4) The inoculation with bacteria is accomplished by using the following procedure. Twenty-four hour-cultures of each of the bacteria are prepared by incubating the respective bacteria in tubes containing nutrient broth for 24 hours at 30° C. in a shaker. Dilutions of each of the 24 hour-cultures are made so that nine separate suspensions (one for each of the nine test bacteria) are made, each containing 10^8 colony forming units (CFU) per mL of suspension of a particular bacteria. Aliquots of 0.3 mL of each of the bacterial suspensions are used to fill the individual wells of Steer's Replicator. For each microbial suspension, 0.3 mL was used to fill three wells (i.e., three wells of 0.3 mL each) so that for the nine different bacteria, 27 wells are filled. The Steer's Replicator is then used to inoculate both the neutral and alkaline pH nutrient agar petri plates.
(§5) The inoculated petri plates are incubated at 30° C. for 48 hours and then read to determine if the test compound which is incorporated into the agar prevented growth of the respective bacteria.
(§6) Table II lists the bacteria, yeast and fungi used in the MIC test described above along with their respective American Type Culture Collection (ATCC) identification numbers.
(§7) In Tables III and IV, the MIC values of the compounds described in Table I as compared to the MIC of a standard commercial preservative (with 1-(3-chloroallyl)-3,5,7-triaza-1-azoniaadamantane chloride as the active agent and referred to in Tables III and IV as "STANDARD I") are set forth for the bacteria organisms and yeast/fungi organisms which are listed in Table II.

[2] = system: Penicillium chrysogenum (Pc); assay: Minimum inhibitory concentration (MIC), yeast/fungi in malt yeast agar; format: cell-based, Penicillium chrysogenum ATCC 9480; settings: 30° C., 72 hours for fungi
Procedure: as §1
(§8) Malt yeast agar is prepared by adding 3 g yeast extract and 45 g malt agar per liter of deionized water. The specific agar is dispensed in 30 mL aliquots into 25×200 mm test tubes, capped and autoclaved for 15 minutes at 115° C.
as §3
(§9) The inoculation with the yeast and fungi is accomplished as follows. Cultures of yeast and fungi are incubated for seven days on malt yeast agar at 30° C. These cultures are used to prepare suspensions by the following procedure. A suspension of each organism is prepared by adding 10 mL of sterile saline and 10 microliters of octylphenoxy polyethoxy ethanol to the agar slant of yeast or fungi. The sterile saline/octylphenoxy polyethoxy ethanol solution is then agitated with a sterile swab to suspend the microorganism grown on the slant. Each resulting suspension is diluted into sterile saline (1 part suspension to 9 parts sterile saline). Aliquots of these dilutions are placed in individual wells of Steer's Replicator and petri plates inoculated as previously described. The petri plates are incubated at 30° C. and read after 48 hours for yeast and 72 hours for fungi.
as §6, §7

Proteus vulgaris (Pv) = assay: Minimum inhibitory concentration (MIC), bacteria in nutrient agar; format: cell-based, Proteus vulgaris ATCC 881; settings: 48 hours
Procedure: as §1, §2, §3, §4, §5, §6, §7

[3] = system: Aureobasidium pullulan (Ap); assay: Minimum inhibitory concentration (MIC), yeast/fungi in malt yeast agar; format: cell-based, Aureobasidium pullulan ATCC 16622; settings: 30° C., read after 48 hours for yeast and 72 hours for fungi
Procedure: as §1, §8, §3, §9, §6, §7

Bacillus subtilis (Bs) = assay: Minimum inhibitory concentration (MIC), bacteria in nutrient agar; format: cell-based, Bacillus subtilis ATCC 8473; settings: 48 hours
Procedure: as §1, §2, §3, §4, §5, §6, §7

Fusarium oxysporum (Fo) = assay: Minimum inhibitory concentration (MIC), yeast/fungi in malt yeast agar; format: cell-based, Fusarium oxysporum ATCC 48112; settings: 30° C., 72 hours for fungi
Procedure: as §1, §8, §3, §9, §6, §7

Trichoderma viride (Tv) = assay: as above; format: cell-based, Trichoderma viride ATCC 8678; settings: 30° C., 72 hours for fungi
Procedure: as §1, §8, §3, §9, §6, §7

[4] = system: Pseudomonas aeruginosa (PRD-10); assay: Minimum inhibitory concentration (MIC), bacteria in nutrient agar; format: cell-based, Pseudomonas aeruginosa ATCC 15442; settings: 48 hours
Procedure: as §1, §2, §3, §4, §5, §6, §7

Escherichia coli (Ec) = assay: as above; format: cell-based, Escherichia coli ATCC 11229; settings: 48 hours
Procedure: as §1, §2, §3, §4, §5, §6, §7

Candida albicans (Ca) = assay: Minimum inhibitory concentration (MIC), yeast/fungi in malt yeast agar; format: cell-based, Candida albicans ATCC 10231; settings: 30° C., 48 hours for yeast
Procedure: as §1, §8, §3, §9, §6, §7

[5] = system: Salmonella choleraesuis (Sc); assay: Minimum inhibitory concentration (MIC), bacteria in nutrient agar; format: cell-based, Salmonella choleraesuis ATCC 10708; settings: Salmonella enterica, 48 hours
Procedure: as §1, §2, §3, §4, §5, §6, §7

[6] = system: Klebsiella pneumoniae (Kp); assay: as above; format: cell-based, Klebsiella pneumoniae ATCC 8308; settings: 48 hours
Procedure: as §1, §2, §3, §4, §5, §6, §7

[7] = system: Enterobacter aerogenes (Ea); assay: as above; format: cell-based, Enterobacter aerogenes ATCC 13048; settings: Klebsiella aerogenes, 48 hours
Procedure: as §1, §2, §3, §4, §5, §6, §7

Aspergillus niger (An) = assay: Minimum inhibitory concentration (MIC), yeast/fungi in malt yeast agar; format: cell-based, Aspergillus niger ATCC 16404; settings: 30° C., 72 hours for fungi
Procedure: as §1, §8, §3, §9, §6, §7

[8] = system: Saccharomyces cerevisiae (Sc); assay: as above; format: cell-based, Saccharomyces cerevisiae ATCC 4105; settings: 30° C., 48 hours for yeast
Procedure: as §1, §8, §3, §9, §6, §7

[9] = system: Pseudomonas aeruginosa (Pa); assay: Minimum inhibitory concentration (MIC), bacteria in nutrient agar; format: cell-based, Pseudomonas aeruginosa ATCC 10145; settings: 48 hours
Procedure: as §1, §2, §3, §4, §5, §6, §7

Row | Compound | MIC ([1]; nutrient agar pH 6.8, 30° C.) | MIC ([1]; nutrient agar pH 8.2, 30° C.) | MIC [2] | MIC (Proteus vulgaris (Pv); nutrient agar pH 6.8, 30° C.) | MIC (Proteus vulgaris (Pv); nutrient agar pH 8.2, 30° C.) | MIC [3] | MIC (Bacillus subtilis (Bs); nutrient agar pH 6.8, 30° C.) | MIC (Bacillus subtilis (Bs); nutrient agar pH 8.2, 30° C.) | MIC (Fusarium oxysporum (Fo)) | MIC (Trichoderma viride (Tv)) | MIC ([4]; nutrient agar pH 6.8, 30° C.) | MIC ([4]; nutrient agar pH 8.2, 30° C.) | MIC (Escherichia coli (Ec); nutrient agar pH 6.8, 30° C.) | MIC (Escherichia coli (Ec); nutrient agar pH 8.2, 30° C.) | MIC (Candida albicans (Ca)) | MIC ([5]; nutrient agar pH 6.8, 30° C.) | MIC ([5]; nutrient agar pH 8.2, 30° C.) | MIC ([6]; nutrient agar pH 6.8, 30° C.) | MIC ([6]; nutrient agar pH 8.2, 30° C.) | MIC ([7]; nutrient agar pH 6.8, 30° C.) | further results
1 | Cc1ccc(-n2nnnc2SCSC#N)cc1 [VII, 1-(4-Methylphenyl)-5-thiomethylthiocyanato-1H-tetrazole] | 25 µg/mL (≈ 94.9 µM) | 50 µg/mL (≈ 190 µM) | < 1 µg/mL | 100 µg/mL (≈ 380 µM) | 250 µg/mL (≈ 949 µM) | < 1 µg/mL | < 10 µg/mL | < 10 µg/mL | 5 µg/mL (≈ 19 µM) | 10 µg/mL (≈ 38 µM) | 500 µg/mL (≈ 1900 µM) | 250 µg/mL (≈ 949 µM) | 500 µg/mL (≈ 1900 µM) | 500 µg/mL (≈ 1900 µM) | 10 µg/mL (≈ 38 µM) | > 500 µg/mL | > 500 µg/mL | 250 µg/mL (≈ 949 µM) | 100 µg/mL (≈ 380 µM) | > 500 µg/mL | MIC ([7]; nutrient agar pH 8.2, 30° C.): > 500 µg/mL; MIC (Aspergillus niger (An)): 2.5 µg/mL (≈ 9.49 µM); MIC [8]: < 1 µg/mL
2 | COc1ccc(-n2nnnc2SCSC#N)cc1 [VIII, 1-(4-Methoxyphenyl)-5-thiomethylthiocyanato-1 H-tetrazole] | 25 µg/mL (≈ 89.5 µM) | 100 µg/mL (≈ 358 µM) | < 10 µg/mL | 250 µg/mL (≈ 895 µM) | 500 µg/mL (≈ 1790 µM) | < 10 µg/mL | < 10 µg/mL | 25 µg/mL (≈ 89.5 µM) | < 10 µg/mL | 25 µg/mL (≈ 89.5 µM) | 100 µg/mL (≈ 358 µM) | 500 µg/mL (≈ 1790 µM) | 100 µg/mL (≈ 358 µM) | 500 µg/mL (≈ 1790 µM) | 25 µg/mL (≈ 89.5 µM) | 250 µg/mL (≈ 895 µM) | 500 µg/mL (≈ 1790 µM) | 250 µg/mL (≈ 895 µM) | 100 µg/mL (≈ 358 µM) | 250 µg/mL (≈ 895 µM) | MIC ([9]; nutrient agar pH 8.2, 30° C.): 100 µg/mL (≈ 358 µM); MIC ([7]; nutrient agar pH 8.2, 30° C.): 500 µg/mL (≈ 1790 µM); MIC (Aspergillus niger (An)): < 10 µg/mL; MIC [8]: < 10 µg/mL
3 | N#CSCSc1nnnn1-c1ccc([N+](=O)[O-])cc1 [XI, 1-(4-Nitrophenyl)-5-thiomethylthiocyanato-1H-tetrazole] | 100 µg/mL (≈ 340 µM) | 50 µg/mL (≈ 170 µM) | < 2.5 µg/mL | < 100 µg/mL | > 100 µg/mL | 10 µg/mL (≈ 34 µM) | > 100 µg/mL | > 100 µg/mL | 25 µg/mL (≈ 84.9 µM) | 25 µg/mL (≈ 84.9 µM) | > 100 µg/mL | > 100 µg/mL | > 100 µg/mL | > 100 µg/mL | 100 µg/mL (≈ 340 µM) | > 100 µg/mL | > 100 µg/mL | < 100 µg/mL | > 100 µg/mL | > 100 µg/mL | MIC ([9]; nutrient agar pH 6.8, 30° C.): > 100 µg/mL; MIC ([9]; nutrient agar pH 8.2, 30° C.): > 100 µg/mL; MIC ([7]; nutrient agar pH 8.2, 30° C.): > 100 µg/mL; MIC (Aspergillus niger (An)): 5 µg/mL (≈ 17 µM); MIC [8]: 10 µg/mL (≈ 34 µM)
